Assay results from BigSolDB 2.1.

Q: For `Nc1cnc(Cl)cn1`, which solubility (mole fraction) (in ethanol, 278.15 K) is on record?
A: 0.00222

Q: And the solubility (mole fraction) (in ethanol, 283.15 K)?
A: 0.00302

Q: What about the solubility (mole fraction) (in ethanol, 288.15 K) of the same compound?
A: 0.00388

Q: What about the solubility (mole fraction) (in ethanol, 293.15 K) of the same compound?
A: 0.00477

Q: What about the solubility (mole fraction) (in ethanol, 298.15 K) of the same compound?
A: 0.0058

Q: What about the solubility (mole fraction) (in ethanol, 303.15 K) of the same compound?
A: 0.00692

Q: And the solubility (mole fraction) (in ethanol, 308.15 K)?
A: 0.00813

Q: And the solubility (mole fraction) (in ethanol, 313.15 K)?
A: 0.00961

Q: What about the solubility (mole fraction) (in ethanol, 318.15 K) of the same compound?
A: 0.0111

Q: And the solubility (mole fraction) (in ethanol, 323.15 K)?
A: 0.0131

Q: And the solubility (mole fraction) (in ethylene glycol, 278.15 K)?
A: 0.000321

Q: What about the solubility (mole fraction) (in ethylene glycol, 283.15 K) of the same compound?
A: 0.000398

Q: And the solubility (mole fraction) (in ethylene glycol, 288.15 K)?
A: 0.000506

Q: And the solubility (mole fraction) (in ethylene glycol, 293.15 K)?
A: 0.000615

Q: And the solubility (mole fraction) (in ethylene glycol, 298.15 K)?
A: 0.000747

Q: What about the solubility (mole fraction) (in ethylene glycol, 303.15 K) of the same compound?
A: 0.000868

Q: What about the solubility (mole fraction) (in ethylene glycol, 308.15 K) of the same compound?
A: 0.00102

Q: What about the solubility (mole fraction) (in ethylene glycol, 313.15 K) of the same compound?
A: 0.00117

Q: What about the solubility (mole fraction) (in ethylene glycol, 318.15 K) of the same compound?
A: 0.00136

Q: What about the solubility (mole fraction) (in ethylene glycol, 323.15 K) of the same compound?
A: 0.00157

Q: And the solubility (mole fraction) (in methanol, 278.15 K)?
A: 0.00319

Q: What about the solubility (mole fraction) (in methanol, 283.15 K) of the same compound?
A: 0.00442

Q: And the solubility (mole fraction) (in methanol, 288.15 K)?
A: 0.00573

Q: And the solubility (mole fraction) (in methanol, 293.15 K)?
A: 0.0073

Q: What about the solubility (mole fraction) (in methanol, 298.15 K) of the same compound?
A: 0.00915

Q: What about the solubility (mole fraction) (in methanol, 303.15 K) of the same compound?
A: 0.0109

Q: And the solubility (mole fraction) (in methanol, 308.15 K)?
A: 0.0127

Q: What about the solubility (mole fraction) (in methanol, 313.15 K) of the same compound?
A: 0.0149

Q: And the solubility (mole fraction) (in methanol, 318.15 K)?
A: 0.0173

Q: And the solubility (mole fraction) (in methanol, 323.15 K)?
A: 0.0201

Q: What about the solubility (mole fraction) (in n-propanol, 278.15 K) of the same compound?
A: 0.000781

Q: And the solubility (mole fraction) (in n-propanol, 283.15 K)?
A: 0.001

Q: And the solubility (mole fraction) (in n-propanol, 288.15 K)?
A: 0.00126

Q: And the solubility (mole fraction) (in n-propanol, 293.15 K)?
A: 0.00152

Q: And the solubility (mole fraction) (in n-propanol, 298.15 K)?
A: 0.00181

Q: What about the solubility (mole fraction) (in n-propanol, 303.15 K) of the same compound?
A: 0.00214

Q: And the solubility (mole fraction) (in n-propanol, 308.15 K)?
A: 0.00252

Q: What about the solubility (mole fraction) (in n-propanol, 313.15 K) of the same compound?
A: 0.00291

Q: What about the solubility (mole fraction) (in n-propanol, 318.15 K) of the same compound?
A: 0.00334

Q: What about the solubility (mole fraction) (in n-propanol, 323.15 K) of the same compound?
A: 0.00383

Q: What about the solubility (mole fraction) (in water, 278.15 K) of the same compound?
A: 3.69e-05

Q: What about the solubility (mole fraction) (in water, 283.15 K) of the same compound?
A: 4.76e-05

Q: And the solubility (mole fraction) (in water, 288.15 K)?
A: 6.03e-05

Q: What about the solubility (mole fraction) (in water, 293.15 K) of the same compound?
A: 7.35e-05

Q: What about the solubility (mole fraction) (in water, 298.15 K) of the same compound?
A: 8.88e-05

Q: What about the solubility (mole fraction) (in water, 303.15 K) of the same compound?
A: 0.000106

Q: What about the solubility (mole fraction) (in water, 308.15 K) of the same compound?
A: 0.000123

Q: What about the solubility (mole fraction) (in water, 313.15 K) of the same compound?
A: 0.000141

Q: What about the solubility (mole fraction) (in water, 318.15 K) of the same compound?
A: 0.000161

Q: And the solubility (mole fraction) (in water, 323.15 K)?
A: 0.000182
